# pIC50: −log10 of the molar value.
# Key:
# [1] = tested on: MV-4-11 (human, Acute Myeloid Leukemia cell line) cells; assay: Cell growth inhibition assay, GI50 of MV-4-11; type: cell-based; conditions: Homo sapiens, MV4-11, 72 h, MV-4-11 cells
# Procedure, shortened: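 MV-4-11 AML cells (5×10^4/well, IMDM with 10% FBS) treated in duplicate with serially diluted compounds for 72 hours at 37 °C. Viability read as absorbance at 490 nm after CellTiter 96 Aqueous One (MTS) addition; GI50 calculated from the concentration-response.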
# [2] = biological target: cDNA-expressed human hepatic CYP3A4 (Homo sapiens (Human), UniProt P08684); assay: Measurement of CYP (IC50 of P450 CYP3A4), BFC substrate; type: in vitro ADME; conditions: 20 minutes
# Procedure, shortened: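 cDNA-expressed human CYP3A4 supersomes in 0.1M potassium phosphate pH 7.4 with 8.3 mM MgCl2, 1.67 mM EDTA and 0.25 mM NADPH; compounds in acetonitrile (<1% final). Reaction started with 30 µM BFC, 20 min at 37. 7-Hydroxy-4-trifluoromethyl-coumarin read by fluorescence (ex 409/em 530 nm).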
# Sequence of cDNA-expressed human hepatic CYP3A4 (P08684 whole entry): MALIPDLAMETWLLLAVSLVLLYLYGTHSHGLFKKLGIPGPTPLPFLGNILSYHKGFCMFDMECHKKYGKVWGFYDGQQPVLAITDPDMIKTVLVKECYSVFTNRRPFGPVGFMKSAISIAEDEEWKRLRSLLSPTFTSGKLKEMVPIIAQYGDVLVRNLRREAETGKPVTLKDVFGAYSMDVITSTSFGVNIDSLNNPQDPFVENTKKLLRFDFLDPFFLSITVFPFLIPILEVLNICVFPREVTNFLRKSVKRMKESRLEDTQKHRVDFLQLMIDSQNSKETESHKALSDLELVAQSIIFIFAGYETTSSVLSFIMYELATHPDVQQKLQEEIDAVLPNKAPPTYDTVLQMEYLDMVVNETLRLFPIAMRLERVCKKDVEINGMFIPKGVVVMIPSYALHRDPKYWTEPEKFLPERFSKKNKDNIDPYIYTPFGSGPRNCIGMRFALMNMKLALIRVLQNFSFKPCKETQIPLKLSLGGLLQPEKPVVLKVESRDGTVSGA
smiles,measurement,setting,value
C=CCN1CC(=O)N2[C@@H](Cc3ccc(O)cc3)C(=O)N(Cc3cccc4c(-c5ccc(NC(=O)c6ccccc6)cc5)cn(C)c34)C[C@@H]2N1C(=O)NCc1ccccc1 [Compound D-48],GI50,[1],1.9 nM
same,pIC50,[2],< 4.60
C=CCN1CC(=O)N2[C@@H](Cc3ccc(O)cc3)C(=O)N(Cc3cccc4c(-c5ccc(C(=O)Nc6ccc(OC)cc6)cc5)cn(C)c34)C[C@@H]2N1C(=O)NCc1ccccc1 [Compound D-22],GI50,[1],4.2 nM
same,pIC50,[2],4.71
C=CCN1CC(=O)N2[C@@H](Cc3ccc(O)cc3)C(=O)N(Cc3cccc4c(-c5cnc6ccccc6c5)cn(C)c34)C[C@@H]2N1C(=O)NCc1ccccc1 [Compound H-6],GI50,[1],9.7 nM
same,pIC50,[2],5.68
C=CCN1CC(=O)N2[C@@H](Cc3ccc(O)cc3)C(=O)N(Cc3cccc4c(C(=O)N5CCN(C(C)C)CC5)cn(C)c34)C[C@@H]2N1C(=O)NCc1ccccc1 [Compound E-7],GI50,[1],11.3 nM
same,pIC50,[2],5.65
C=CCN1CC(=O)N2[C@@H](Cc3ccc(O)cc3)C(=O)N(Cc3cccc4c(C(=O)N(C)CCO)cn(C)c34)C[C@@H]2N1C(=O)NCc1ccccc1 [Compound F-3],GI50,[1],7.6 nM
same,pIC50,[2],5.60
C=CCN1CC(=O)N2[C@@H](Cc3ccc(O)cc3)C(=O)N(Cc3cccc4c(-c5ccc(C(=O)Nc6ccc(N7CCN(C)CC7)cc6)cc5)cn(C)c34)C[C@@H]2N1C(=O)NCc1ccccc1 [Compound D-11],GI50,[1],1.8 nM
same,pIC50,[2],5.15
C=CCN1CC(=O)N2C(Cc3ccc(O)cc3)C(=O)N(Cc3cccc4c(C(=O)Nc5ccc(NC6CC(C)(C)N(C)C(C)(C)C6)nc5)cn(C)c34)CC2N1C(=O)NCc1ccccc1 (stereo not shown) [Compound G-52],GI50,[1],13 nM
same,pIC50,[2],5.15
C=CCN1CC(=O)N2[C@@H](Cc3ccc(O)cc3)C(=O)N(Cc3cccc4c(-c5ccc(C(=O)Nc6ccc(N7CCOCC7)nc6)cc5)cn(C)c34)C[C@@H]2N1C(=O)NCc1ccccc1 [Compound D-12],GI50,[1],2.1 nM
same,pIC50,[2],< 4.60
C=CCN1CC(=O)N2[C@@H](Cc3ccc(O)cc3)C(=O)N(Cc3cccc4c(-c5ccc(C(=O)N6CCN(C)CC6)nc5)cn(C)c34)C[C@@H]2N1C(=O)NCc1ccccc1 [Compound D-91],GI50,[1],1.3 nM
same,pIC50,[2],5.19
C=CCN1CC(=O)N2[C@@H](Cc3ccc(O)cc3)C(=O)N(Cc3cccc4c(C(=O)N5CCN6CCN(C(=O)OC(C)(C)C)CC6C5)cn(C)c34)C[C@@H]2N1C(=O)NCc1ccccc1 (stereo partly shown) [Compound E-47],GI50,[1],13.5 nM
same,pIC50,[2],5.66
C=CCN1CC(=O)N2[C@@H](Cc3ccc(O)cc3)C(=O)N(Cc3cccc4c(C(=O)Nc5ccc(N6CCN(C7CCCC7)CC6)nc5)cn(C)c34)C[C@@H]2N1C(=O)NCc1ccccc1 [Compound G-50],GI50,[1],2.4 nM
same,pIC50,[2],4.76
C=CCN1CC(=O)N2[C@@H](Cc3ccc(O)cc3)C(=O)N(Cc3cccc4c(C(=O)Nc5ccc(NCCN(C)C)nc5)cn(C)c34)C[C@@H]2N1C(=O)NCc1ccccc1 [Compound G-23],GI50,[1],1.3 nM
same,pIC50,[2],5.17
C=CCN1CC(=O)N2[C@@H](Cc3ccc(O)cc3)C(=O)N(Cc3cccc4c(C(=O)Nc5ccc(N6CCC(N7CCC7)CC6)nc5)cn(C)c34)C[C@@H]2N1C(=O)NCc1ccccc1 [Compound G-54],GI50,[1],1.4 nM
same,pIC50,[2],5.48
C=CCN1CC(=O)N2[C@@H](Cc3ccc(O)cc3)C(=O)N(Cc3cccc4c(C(=O)Nc5ccc(OCCOC)nc5)cn(C)c34)C[C@@H]2N1C(=O)NCc1ccccc1 [Compound G-11],GI50,[1],1.8 nM
same,pIC50,[2],5.12
C=CCN1CC(=O)N2[C@@H](Cc3ccc(O)cc3)C(=O)N(Cc3cccc4c(-c5cnc(N(C)C)nc5)cn(C)c34)C[C@@H]2N1C(=O)NCc1ccccc1 [Compound H-7],GI50,[1],1.5 nM
same,pIC50,[2],5.19
C=CCN1CC(=O)N2[C@@H](Cc3ccc(O)cc3)C(=O)N(Cc3cccc4c(C(=O)NC5CCN(C(=O)c6ccc(N7CCN(C)CC7)cc6)CC5)cn(C)c34)C[C@@H]2N1C(=O)NCc1ccccc1 [Compound F-67],GI50,[1],2.5 nM
same,pIC50,[2],5.02
C=CCN1CC(=O)N2C(Cc3ccc(O)cc3)C(=O)N(Cc3cccc4c(C(=O)Nc5ccc(NCC(C)(C)C)nc5)cn(C)c34)CC2N1C(=O)NCc1ccccc1 (stereo not shown) [Compound G-22],GI50,[1],1.4 nM
same,pIC50,[2],5.62
C=CCN1CC(=O)N2[C@@H](Cc3ccc(O)cc3)C(=O)N(Cc3cccc4c(-c5ccc(C(=O)OC)cc5)cn(C)c34)C[C@@H]2N1C(=O)NCc1ccccc1 [Compound H-1],GI50,[1],15 nM
same,pIC50,[2],5.41
C=CCN1CC(=O)N2[C@@H](Cc3ccc(O)cc3)C(=O)N(Cc3cccc4c(C(=O)Nc5ccc(OC(C)(C)C)cc5)cn(C)c34)C[C@@H]2N1C(=O)NCc1ccccc1 [Compound G-6],GI50,[1],14 nM
same,pIC50,[2],4.72
C=CCN1CC(=O)N2C(CN(Cc3cccc4c(C(=O)Nc5ccc(CCO)cc5)cn(C)c34)C(=O)[C@@H]2Cc2ccc(O)cc2)N1C(=O)NCc1ccccc1 (stereo partly shown) [Compound G-10],GI50,[1],1.7 nM
same,pIC50,[2],5.13
